Assay results reported in patent US12685791B2, “Free PSA antibodies as diagnostics, prognostics and therapeutics for prostate cancer” (Memorial Sloan Kettering Cancer Center, priority 2011, dated 2026).
Values joined by “and” are separate entries in the source; they are usually repeats but may differ in a detail not shown here. Identical values can stand only once.

How the values were obtained:
fPSA and tPSA [1] = test: Tumor PSA ELISA, castrate male mice bearing LNCaP-AR tumors treated with vehicle or MDV3100 (Table 14); assay type: in vivo, human; details: for f/t PSA Ratio / fPSA / fPSA/tProtein: tumor, individual mice, listed as MDV
Procedure: (§1) Mice were injected with ^89Zr-5A10, and at the indicated time point post injection, were sacrificed for PSA analysis. Tumor tissues were surgically excised. fPSA and total PSA (“tPSA”) were determined with PSA-directed ELISA, and the values were normalized to total protein concentration. fPSA concentrations are reported as average ng/ml(a), total PSA (“tPSA”) concentrations are reported as ng/mL (b), and total protein concentrations are reported as ng/mg (c). ELISAs were conducted as follows for PSA detection in serum and tumor tissues. fPSA and tPSA were measured with a dual-label immunofluorometric assay (DELFIA Prostatus™ PSA Free/Total PSA; Perkin-Elmer Life Sciences) according to manufacturer's recommendations. This assay measured fPSA and complexed PSA (cPSA) in an equimolar fashion^8, and the cross-reactivity of PSA-ACT for fPSA was <0.2%^9. […] For detection, the 1235 automatic immunoassay system from Perkin-Elmer Life Sciences was used. cPSA concentrations were calculated by subtracting fPSA from tPSA.
As expected, each dose of MDV3100 inhibited AR signaling and fPSA synthesis (Table 14). Table 14 provides data regarding tumor analysis of PSA expression levels via ELISA in castrate male mice bearing LNCaP-AR tumors treated with antiandrogens. Castrate male mice bearing LNCaP-AR xenografts received a daily oral gavage of vehicle (VEH #), 10 mg/kg (MDV10 #), 40 mg/kg (MDV40 #), or 80 mg/kg (MDV80 #). Six days post manipulation, mice were injected with ^89Zr-5A10. Twenty four hours post injection, mice were sacrificed for PSA analysis. Tumor tissues were surgically excised. fPSA and tPSA were determined with PSA-directed ELISA (as above), and in the case of intratumoral PSA, the values were normalized to total protein concentration. ^afPSA concentrations are reported as ng/ml, ^btotal PSA concentrations are reported as ng/mL, ^ctotal protein concentrations are reported as ng/mg. Abbreviations: fPSA, fPSA; tPSA, total PSA.

LNCaP-AR xenografts [2] = test: 89Zr-5A10 PET, region-of-interest analysis (SUVmean) of s.c. LNCaP-AR tumors (Table 16); assay type: in vivo, mice
Procedure: PET imaging experiments were conducted on a microPET Focus 120 scanner (Concorde Microsystems). […] Approximately 5 min prior to recording PET images, mice were anesthetized by inhalation of 1-2% isoflurane (Baxter Healthcare, Deerfield, IL)/oxygen gas mixture and placed on the scanner bed. PET images were recorded at various time-points between 1-120 h post-injection. List-mode data were acquired for between 10 and 30 min. using a T-ray energy window of 350-750 keV, and a coincidence timing window of 6 ns. For all static images, scan time was adjusted to ensure a minimum of 20 million coincident events were recorded. Data were sorted into 2-dimensional histograms by Fourier re-binning, and transverse images were reconstructed by filtered back-projection (FBP) into a 128×128×63 (0.72×0.72×1.3 mm) matrix. The reconstructed spatial resolution for ^89Zr was 1.9 mm full-width half maximum (FWHM) at the center of the field-of-view (FOV). […] An empirically determined system calibration factor (in units of [mCi/mL]/[cps/voxel]) for mice was used to convert voxel count rates to activity concentrations. […] Manually drawn 2-dimensional regions-of-interest (ROIs) or 3-dimensional volumes-of-interest (VOIs) were used to determined the maximum and mean % ID/g (decay corrected to the time of injection) in various tissues. Images were analyzed by using ASIPro VM™ software (Concorde Microsystems).

LNCaP-AR xenografts [3] = test: Ex vivo biodistribution of 89Zr-5A10, castrate male mice bearing LNCaP-AR xenografts treated with vehicle or MDV3100 (Table 13); assay type: in vivo
Procedure: All animal experiments were conducted in compliance with Institutional Animal Care and Use Committee (IACUC) guidelines and the Guide for the Care and Use of Laboratory Animals. Male CB-17 SCID mice (6-8 weeks old) were obtained from Taconic Farms Inc. (Hudson, NY), LNCaP-AR, 22Rv1, and PC3 tumors were inoculated in the right flank by sub-cutaneous (s.c.) injection of 1.0×10^6 cells in a 200 μL cell suspension of a 1:1 v/v mixture of media with reconstituted basement membrane (BD Matrigel™, Collaborative Biomedical Products Inc., Bedford, MA). Palpable tumors (50-250 mm^3) developed after a period of 3-7 weeks. Surgical castration and pellet implantation were performed according to known protocols under anesthesia with isoflurane. […]
Tissues were harvested at multiple time points post-injection (p.i.) to determine the kinetics of radiotracer biodistribution (FIG. 3a). […] Animals (n=4-5, per group) were euthanized by CO2 (g) asphyxiation at 1, 4, 12, 24, 48, 72, 96, and 120 h post-injection and 16 tissues (including the tumor) were removed, rinsed in water, dried in air for 5 min., weighed and counted on a gamma-counter for accumulation of ^89Zr-radioactivity. […] Count data were background- and decay-corrected and the tissue uptake measured in units of percentage injected dose per gram (% ID/g) for each sample was calculated by normalization to the total amount of activity injected. […]

fPSA and tPSA [4] = test: Intratumoral PSA ELISA, castrate male mice bearing LNCaP-AR xenografts, no treatment or testosterone pellet (Table 10); assay type: in vivo, human
Procedure: as §1
Table 10 provides intratumoral PSA concentrations in castrate male mice bearing LNCaP-AR xenografts, receiving either no manipulation, or a subcutaneous testosterone pellet. […] Twenty four hours post injection, mice were sacrificed for PSA analysis. Tumor tissues were surgically excised. fPSA and tPSA were determined with PSA-directed ELISA (as above), and in the case of intratumoral PSA, the values were normalized to total protein concentration. ^afPSA concentrations are reported as ng/ml, ^btotal PSA concentrations are reported as ng/mL, ^ctotal protein concentrations are reported as ng/mg. Abbreviations: fPSA, fPSA; tPSA, total PSA.

fPSA and tPSA [5] = test: Tumor PSA ELISA, castrate male mice bearing 22Rv1 tumors, no treatment or testosterone pellet (Table 12); assay type: in vivo, human; details: 22Rv1 tumor, individual mice with s.c. testosterone pellet, 7 d
Procedure: as §1
Twenty four hours post-injection, mice were sacrificed for PSA analysis. […]

[6] = system: bone remodeling (fractured tibia); test: Bone fracture model, PET/SPECT of bone remodeling; assay type: in vivo, mice; details: PET or SPECT
Procedure: Osseous tumors were established in intact male mice via injection of LNCaP-AR in the tibia of the left hindlimb as follows. Prior to surgery, […] male SCID mice were anesthetized with ketamine, and an incision was be made in the left hind limb. The tibia was punctured using a bone drill, and 1×10^5 cells (22Rv1 or LNCaP-AR) injected into the marrow. The puncture was closed with bone wax, the incision sutured, and animals received a palliative dose of carprofen (5 mg/kg) once daily for three days post surgery. Tumor development was followed with bioluminescence imaging, and confirmed with MRI. The bone fracture model was prepared similar to the osseous tumor model, excluding injection of cells and application of bone wax.
In FIG. 14c, intact male mice received a fracture in the tibia, and ten days post surgery, bone remodeling was evaluated with ^18F—NaF. A clear region of contrast was identified in the fractured tibia by PET.

[7] = 10 mg/kg daily oral gavage, 10 mg/kg
[8] = 40 mg/kg daily oral gavage, 40 mg/kg
[9] = 80 mg/kg daily oral gavage, 80 mg/kg
[10] = tumor, individual mice with s.c. testosterone pellet, 7 d

`CNC(=O)c1ccc(N2C(=S)N(c3ccc(C#N)c(C(F)(F)F)c3)C(=O)C2(C)C)cc1F` [MDV3100] was tested, and the “AR signaling and fPSA synthesis” value (fPSA and tPSA [1]; each dose (10, 40, 80 mg/kg)) was “inhibited”, the “f/t PSA Ratio” value (fPSA and tPSA [1]; [7]) was 0.73 and 0.56 and 0.60 and 0.69 and the fPSA (fPSA and tPSA [1]; [7]) was 19.12 ng/mL and 48.98 ng/mL and 3.96 ng/mL and 474.40 ng/mL. For the same compound, the fPSA/tProtein (fPSA and tPSA [1]; [7]) was 3.29 and 7.07 and 0.88 and 51.57, the “f/t PSA Ratio” value (fPSA and tPSA [1]; [8]) was 0.89 and 0.85 and 0.80 and the fPSA (fPSA and tPSA [1]; [8]) was 71.24 ng/mL and 43.25 ng/mL and 98.26 ng/mL. For the same compound, the fPSA/tProtein (fPSA and tPSA [1]; [8]) was 11.61 and 6.14 and 15.13, the “f/t PSA Ratio” value (fPSA and tPSA [1]; [9]) was 0.57 and 0.69 and 0.59 and the fPSA (fPSA and tPSA [1]; [9]) was 5.97 ng/mL and 77.83 ng/mL and 57.31 ng/mL. For the same compound, the fPSA/tProtein (fPSA and tPSA [1]; [9]) was 1.18 and 10.34 and 9.99, the “tumor-associated 89Zr-5A10 by PET” value (LNCaP-AR xenografts [2]; 80 mg/kg daily oral gavage vs vehicle) was “statistical changes” and the “tumor-associated 89Zr-5A10” value (LNCaP-AR xenografts [3]; 40 and 80 mg/kg dose vs vehicle) was “significantly decreased”. For the same compound, the “effect on localization of 89Zr-5A10 to tumor” value (LNCaP-AR xenografts [3]; daily oral gavage 7 d, 10, 40 or 80 mg/kg) was “inhibits”.
With `C[C@]12CC[C@H]3[C@@H](CCC4=CC(=O)CC[C@@]43C)[C@@H]1CC[C@@H]2O` [testosterone] the “intratumoral PSA levels” value (fPSA and tPSA [4]; s.c. testosterone pellet vs no manipulation) was “increased”, the “f/t PSA Ratio” value (fPSA and tPSA [4]; [10]) was 0.81 and 0.60 and 0.70 and 0.20 and the fPSA (fPSA and tPSA [4]; [10]) was 147.77 ng/mL and 424.31 ng/mL and 384.89 ng/mL and 566.42 ng/mL. For the same compound, the fPSA/tProtein (fPSA and tPSA [4]; [10]) was 22.69 and 51.56 and 65.44 and 66.60, the “tumor-associated 89Zr-5A10 by PET” value (LNCaP-AR xenografts [2]; s.c. testosterone pellets) was “significant increase” and the fPSA (fPSA and tPSA [5]) was 31.0 ng/mL and 26.8 ng/mL and 29.8 ng/mL and 32.9 ng/mL. The fPSA/tProtein (fPSA and tPSA [5]) was 3.60 and 2.84 and 3.44 and 4.19.
With `O.O.O=P([O-])([O-])CP(=O)([O-])[O-].[99Tc+4]` [99mTc-MDP] the “localization to site of bone repair (fractured tibia)” value [6] was “readily localized”.
For `[18F-].[Na+]` [18FNaF], the “localization to site of bone repair (fractured tibia)” value [6] was “readily localized”.
